Measured values reported in ChEMBL document CHEMBL1131359, “Design of new inhibitors for cdc2 kinase based on a multiple pseudosubstrate structure” (Bioorg Med Chem Lett, 1998).
One block for each compound: values may come before it. Calls of active or inactive are those of the source. The calls are words filed in the database; no cut-off is given here. Residues, ends and D or L forms follow the SMILES beside them. *: point of attachment. X3 = CN(C)CCCn1cc(C2=C(c3cn(CCOCC*)c4ccccc34)C(=O)NC2=O)c2ccccc21; X4 = O=C1NC(=O)C(c2cn(CCOCCOCCOC*)c3ccccc23)=C1c1c[nH]c2ccccc12; X1 = O=C1NC(=O)C(c2cn(CCOCCOCC*)c3ccccc23)=C1c1c[nH]c2ccccc12; X2 = O=C1NC(=O)C(c2cn(CCOCC*)c3ccccc23)=C1c1c[nH]c2ccccc12

Assays:
[1] = molecular target: Cyclin-dependent kinase 1/cyclin B (Homo sapiens, UniProt P06493); assay: Inhibitory concentration was determined by measuring phosphorylation of H1 histone using active human Cell division cycle 2-cyclin B complex; type: protein-complex assay
[2] = molecular target: T1, Protein kinase C (PKC) (Homo sapiens) (UniProt O94806+P41743+P17252+P05129+Q05655+P05771+Q05513+Q02156+P24723+Q15139+Q04759); assay: Inhibition of protein kinase C at 2.4 uM; type: protein assay
[3] = molecular target: T2, Cyclin-dependent kinase 1/cyclin B (Homo sapiens) (UniProt P06493+P14635+Q8WWL7+O95067); assay: Inhibition of Cell division cycle 2-cyclin B at 2.4 uM (No inhibition); type: protein-complex assay
[4] = molecular target: T3, cAMP-dependent protein kinase (PKA) (Homo sapiens) (UniProt P22694+P17612+P22612); assay: Inhibition of protein kinase A at 240 uM; type: protein assay
[5] = Inhibition of Calcium/calmodulin-dependent protein kinase at 240 uM (No inhibition)
[6] = molecular target: T1, Protein kinase C (PKC) (Homo sapiens); assay: Inhibition of protein kinase C at 240 uM; type: protein assay
[7] = molecular target: T3, cAMP-dependent protein kinase (PKA) (Homo sapiens); assay: Inhibition of protein kinase A at 24 uM (No inhibition); type: protein assay
[8] = Inhibition of Calcium/calmodulin-dependent protein kinase at 24 uM (No inhibition)
[9] = Inhibition of Calcium/calmodulin-dependent protein kinase at 2.4 uM (No inhibition)
[10] = molecular target: T2, Cyclin-dependent kinase 1/cyclin B (Homo sapiens); assay: Inhibition of Cell division cycle 2-cyclin B at 240 uM (Partial inhibition); type: protein-complex assay
[11] = molecular target: T3, cAMP-dependent protein kinase (PKA) (Homo sapiens); assay: Inhibition of protein kinase A at 2.4 uM (No inhibition); type: protein assay
[12] = molecular target: T1, Protein kinase C (PKC) (Homo sapiens); assay: Inhibition of protein kinase C at 24 uM; type: protein assay
[13] = molecular target: T2, Cyclin-dependent kinase 1/cyclin B (Homo sapiens); assay: Inhibition of Cell division cycle 2-cyclin B at 24 uM (No inhibition); type: protein-complex assay
[14] = molecular target: T3, cAMP-dependent protein kinase (PKA) (Homo sapiens); assay: Inhibition of protein kinase A at 240 uM (No inhibition); type: protein assay
[15] = molecular target: T2, Cyclin-dependent kinase 1/cyclin B (Homo sapiens); details: 240 uM
[16] = molecular target: T3, cAMP-dependent protein kinase (PKA) (Homo sapiens); assay: Inhibition of protein kinase A at 24 uM (partial); type: protein assay
[17] = molecular target: T2, Cyclin-dependent kinase 1/cyclin B (Homo sapiens); assay: Inhibition of Cell division cycle 2-cyclin B at 24 uM (Partial inhibition); type: protein-complex assay
[18] = Inhibition of Calcium/calmodulin-dependent protein kinase at 240 uM (Partial)

IC50 [1]: 55 µM
Compound: O=C1NC(=O)C(c2cn(CCOCCOCCOCCO)c3ccccc23)=C1c1c[nH]c2ccccc12

IC50 [1]: 31 µM
Compound: CNC(=O)[C@H](CCCCN)NC(=O)[C@H](CCCCN)NC(=O)[C@@H]1CCCN1C(=O)[C@H](CSCCOCCOCCOCCn1cc(C2=C(c3c[nH]c4ccccc34)C(=O)NC2=O)c2ccccc21)NC(C)=O

IC50 [1]: > 1000 µM
Compound: CNC(=O)[C@H](CCCCN)NC(=O)[C@H](CCCCN)NC(=O)[C@@H]1CCCN1C(=O)[C@H](CSCCOCCOCCn1cc(C2=C(c3cn(CCCN(C)C)c4ccccc34)C(=O)NC2=O)c2ccccc21)NC(C)=O

inhibition [2]: > 75% | inhibition [3]: inactive | inhibition [4]: > 75% | IC50 [1]: 4 µM | inhibition [5]: inactive | inhibition [6]: > 75% | inhibition [7]: inactive | inhibition [8]: inactive | inhibition [9]: inactive | inhibition [10]: Weak activity | inhibition [11]: inactive | inhibition [12]: > 75% | inhibition [13]: inactive
Compound: O=C1NC(=O)C(c2cn(CCOCCO)c3ccccc23)=C1c1c[nH]c2ccccc12

IC50 [1]: 35 µM
Compound: CN(C)CCCn1cc(C2=C(c3cn(CCOCCOCCO)c4ccccc34)C(=O)NC2=O)c2ccccc21

IC50 [1]: 285 µM
Compound: O=C1NC(=O)C(c2cn(CCOCCOCCO)c3ccccc23)=C1c1c[nH]c2ccccc12

IC50 [1]: 22 µM
Compound: CN(C)CCCn1cc(C2=C(c3cn(CCOCCO)c4ccccc34)C(=O)NC2=O)c2ccccc21

inhibition [2]: > 75% | inhibition [3]: inactive | IC50 [1]: 4.5 µM | inhibition [5]: inactive | inhibition [6]: > 75% | inhibition [7]: inactive | inhibition [8]: inactive | inhibition [9]: inactive | inhibition [10]: Weak activity | inhibition [14]: inactive | inhibition [11]: inactive | inhibition [12]: > 75% | inhibition [13]: inactive
Compound: CNC(=O)[C@H](CCCCN)NC(=O)[C@H](CCCCN)NC(=O)[C@@H]1CCCN1C(=O)[C@H](CSCCOCCOCCn1cc(C2=C(c3c[nH]c4ccccc34)C(=O)NC2=O)c2ccccc21)NC(C)=O (Ac-C(X1)PKK-NHMe)

IC50 [1]: 220 µM
Compound: CNC(=O)[C@H](CCCCN)NC(=O)[C@H](CCCCN)NC(=O)[C@@H]1CCCN1C(=O)[C@H](CO)NC(=O)[C@H](CSCCOCCOCCn1cc(C2=C(c3c[nH]c4ccccc34)C(=O)NC2=O)c2ccccc21)NC(C)=O (Ac-C(X1)SPKK-NHMe)

IC50 [1]: 98 µM
Compound: CNC(=O)[C@H](CCCCN)NC(=O)[C@H](CCCCN)NC(=O)[C@@H]1CCCN1C(=O)[C@H](CSCCOCCn1cc(C2=C(c3c[nH]c4ccccc34)C(=O)NC2=O)c2ccccc21)NC(C)=O (Ac-C(X2)PKK-NHMe)

IC50 [1]: > 1000 µM
Compound: CNC(=O)[C@H](CCCCN)NC(=O)[C@H](CCCCN)NC(=O)[C@@H]1CCCN1C(=O)[C@H](CSCCOCCn1cc(C2=C(c3cn(CCCN(C)C)c4ccccc34)C(=O)NC2=O)c2ccccc21)NC(C)=O (Ac-C(X3)PKK-NHMe)

IC50 [1]: 570 µM
Compound: CNC(=O)[C@H](CCCCN)NC(=O)[C@H](CCCCN)NC(=O)[C@@H]1CCCN1C(=O)[C@H](CO)NC(=O)[C@H](CSCOCCOCCOCCn1cc(C2=C(c3c[nH]c4ccccc34)C(=O)NC2=O)c2ccccc21)NC(C)=O (Ac-C(X4)SPKK-NHMe)

IC50 [1]: > 1000 µM
Compound: CNC(=O)[C@H](CCCCN)NC(=O)[C@H](CCCCN)NC(=O)[C@@H]1CCCN1C(=O)[C@H](CS)NC(C)=O (HELM PEPTIDE1{[ac].C.P.K.K.[CN[*:1]]}$$$$V2.0)

Compound: CN(C)CCCn1cc(C2=C(c3c[nH]c4ccccc34)C(=O)NC2=O)c2ccccc21 [GF-109203]
inhibition [2]: > 75% | inhibition [3]: inactive | inhibition [4]: > 75% | IC50 [1]: 19 µM | inhibition [5]: inactive | inhibition [6]: > 75% | inhibition [8]: inactive | inhibition [9]: inactive | inhibition [15]: > 75% | inhibition [16]: Weak activity | inhibition [17]: Weak activity | inhibition [11]: inactive | inhibition [12]: > 75%

inhibition [18]: Weak activity | inhibition [3]: inactive | inhibition [4]: > 75% | IC50 [1]: 18 µM | inhibition [8]: inactive | inhibition [9]: inactive | inhibition [15]: > 75% | inhibition [16]: Weak activity | inhibition [17]: Weak activity | inhibition [11]: inactive
Compound: O=C1NC(=O)C(c2c[nH]c3ccccc23)=C1c1c[nH]c2ccccc12 [RO-316233]
